In ChEMBL document CHEMBL3301361, “Experimental in vitro DMPK and physicochemical data on a set of publicly disclosed compounds” one finds logD data, which are given here for 36 compounds.

Molecules are shown by their SMILES.

The nature of this series: physchem. Particulars: octan-1-ol/water, pH 7.4, LogD7.4.
`N#Cc1cc(S(=O)(=O)NCC(c2ccccc2)N2CCCCCC2)ccc1F` (stereo unspecified) came in with a logD of 2.71.

`Cc1cc2n[nH]c(=O)n2c2cc(-c3cccnc3)ccc12` returned a logD of 2.72.

In turn, `CC1=C(C2=C(C)C(=O)c3c(cc(O)c(O)c3Cc3ccccc3)C2=O)C(=O)c2cc(O)c(O)c(Cc3ccccc3)c2C1=O` displayed a logD of 2.73. The logD values of the last two compounds are within 0.2 log units of each other.

Turning to `O=C(COCc1ccncc1)N1CCC(c2ccc(Cl)cc2)CC1`, the logD was found to be 2.74.

Consider `O=C(COCc1ccncc1)N1CCC(c2ccc(F)cc2Cl)CC1`, for which the logD came out at 2.7.

For `COc1ccc(-c2cc(=O)c3ccccc3[nH]2)cc1`, the pH-dependent lipophilicity (logD) stood at 2.71.

Take `Cc1sc2ncnc(SCC(=O)N3CCN(C(=O)c4ccco4)CC3)c2c1C`: the pH-dependent lipophilicity (logD) came to 2.7.

The compound `CSc1ncccc1C(=O)NCc1ccc(C)cc1` returned a log distribution coefficient (logD) of 2.71.

As for `CC[C@H](NC(=O)c1c([S+](C)[O-])c(-c2ccccc2)nc2cc(CN(C)C)ccc12)c1ccccc1` (stereo partly specified), the log distribution coefficient (logD) came out at 2.75.

`COc1cc(-c2c(F)ccc3c(N)c(C(=O)NC4CC4)nnc23)c(OC)nn1` yielded a logD of 2.75.

In the case of `CCC(c1nc2ccsc2c(=O)n1Cc1ccccc1)N(CCCN)C(=O)c1ccc(C(C)C)cc1` (stereo unspecified), the logD was determined as 2.72.

On to `COCCOc1ccc(C(=O)Nc2cc(NC(=O)c3cccc(N(C)C)c3)ccc2C)cc1`, for which the pH-dependent lipophilicity (logD) turned out to be 2.74.

`CCN(C(=O)Cc1ccc(S(C)(=O)=O)cc1)C1CCN(CCC(c2ccccc2)c2ccc(C#N)cc2)CC1` (stereo unspecified) had a logD of 2.76.

On to `O=C(NCc1ccccn1)c1ccc(Oc2ccccc2)cc1`, for which the logD stood at 2.7.

Turning to `O=C(Nc1cccc(Cl)c1)N1CCN(C[C@@H]2CCCN(C3CC3)C2)CC1`, the logD amounted to 2.74.

Turning to `Cc1ccc(-c2cn(C)c(C)n2)cc1NC(=O)c1ccc(OCc2ccccn2)cc1`, the logD was 2.71.

With `Clc1ccccc1CNC[C@H]1CC[C@H](CNCc2ccccc2Cl)CC1`, the pH-dependent lipophilicity (logD) was 2.74. This logD and that of the compound before are within 0.2 log units of each other.

With `COc1cc(N2CCN(C)CC2)c2[nH]c(C(=O)Nc3ccc(N4CCOCC4)cc3)cc(=O)c2c1`, the logD is 2.7.

Regarding `CN1CCN(c2cc(F)cc3c(=O)cc(C(=O)Nc4ccc(N5CCOCC5)cc4)[nH]c23)CC1`, the log distribution coefficient (logD) was 2.7.

`O=S(=O)(Nc1ncc(Cl)s1)c1cc(F)c(Oc2ccc(F)cc2-c2cn[nH]c2)cc1F` came in with a pH-dependent lipophilicity (logD) of 2.7.

In turn, `NC1(C(=O)NC(CCCN2CCOCC2)c2ccc(Cl)cc2)CCN(c2ncnc3[nH]ccc23)CC1` (stereo unspecified) returned a log distribution coefficient (logD) of 2.7.

Take `CC(NC(=O)C1(N)CCN(c2ncnc3[nH]ccc23)CC1)c1ccc(Cl)cc1` (stereo unspecified): the logD was determined as 2.7.

As for `COc1cc(-c2ccncc2)cc2cnc(Nc3ccc([C@@H](C)NC(C)=O)cc3)nc12`, the logD was 2.73.

The compound `O=C1C2=Nc3ccccc3CN2c2ccccc21` showed a logD of 2.71.

On to `Cn1c(N)nc(CCc2ccc3ccccc3c2)cc1=O`, for which the logD was 2.7.

For the compound `NS(=O)(=O)c1ccc(Nc2nccc(Nc3c(Cl)ccc4c3OCO4)n2)cc1`, the log distribution coefficient (logD) came to 2.7.

In turn, `CC(C)N1CCN(C(=O)NCc2ccc(Cl)c(Cl)c2)CC1` yielded a logD of 2.75.

Consider `COc1cc(N2CC[C@@H](N(C)C)C2)c2[nH]c(C(=O)Nc3ccc(N4CCOCC4)cc3)cc(=O)c2c1`, for which the pH-dependent lipophilicity (logD) was 2.7.

Compound `CCCN(CCC)C(=O)c1cccc(C(=O)N[C@@H](Cc2ccccc2)[C@H](O)CNCc2cccc(OC)c2)c1` registered a logD of 2.7.

For `Cc1ccc(S(=O)(=O)c2ccccc2)cc1`, the log distribution coefficient (logD) was 2.74.

Take `c1ccc(CNc2nc3ccccc3[nH]2)cc1`: the logD came out at 2.76.

Regarding `CC[C@H](C)[C@@H](CO)NS(=O)(=O)c1ccc(Cl)s1`, the pH-dependent lipophilicity (logD) was 2.7.

Compound `Cn1c(=O)c2c(-c3ccc(S(C)(=O)=O)o3)n(Cc3ccnc4ccc(Cl)cc34)nc2n(CC2CC2)c1=O` showed a pH-dependent lipophilicity (logD) of 2.71.

Turning to `COC(=O)CCC(=O)Nc1ccc2c(c1)-c1ccccc1C(=O)C2=O`, the logD came to 2.72.

For the compound `Nc1nonc1C(=NO)Nc1ccc(F)c(Cl)c1`, the logD was found to be 2.7.

`COC(=O)c1c(C)[nH]c(C)c1C(=O)c1ccccc1Cl` showed a log distribution coefficient (logD) of 2.7.
